Experimental data published in patent US20260285850A1, “SUBSTITUTED OXAZOLIDINONES AND IMIDAZOLINONES AS HERBICIDES” (FMC CORPORATION, priority 2023, published 2026).

How the values were obtained:
Assay type in all cases: in vivo
[1] = tested on: barnyardgrass (Echinochloa crus-galli); assay: Test A preemergence soil spray, visual injury rating 0-100; conditions: 10 days, 0 = no effect, 100 = complete control
How it was run: (§1)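 Compounds formulated in a non-phytotoxic solvent with surfactant are sprayed onto soil of freshly planted loam-sand pots ahead of emergence, or onto emerged plants 2-10 cm tall. After a 10-day greenhouse period, each species is scored visually for injury against untreated controls.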

[2] = tested on: blackgrass (Alopecurus myosuroides); assay: as above; conditions: 10 days, 0 = no effect, 100 = complete control
How it was run: as §1

corn (Zea mays) [3] = assay: as above; conditions: 10 days, 0 = no effect, 100 = complete control
How it was run: as §1

[4] = tested on: green foxtail (Setaria viridis); assay: as above; conditions: 10 days, 0 = no effect, 100 = complete control
How it was run: as §1

kochia (Bassia scoparia) [5] = assay: as above; conditions: 10 days, 0 = no effect, 100 = complete control
How it was run: as §1

[6] = tested on: oat, wild (wild oat, Avena fatua); assay: as above; conditions: 10 days, 0 = no effect, 100 = complete control
How it was run: as §1

[7] = tested on: palmer (palmer amaranth, palmer pigweed, Amaranthus palmeri); assay: as above; conditions: 10 days, 0 = no effect, 100 = complete control
How it was run: as §1

[8] = tested on: ragweed (common ragweed, Ambrosia artemisiifolia); assay: as above; conditions: 10 days, 0 = no effect, 100 = complete control
How it was run: as §1

[9] = tested on: ryegrass, Italian (italian ryegrass, Lolium multiflorum); assay: as above; conditions: 10 days, 0 = no effect, 100 = complete control
How it was run: as §1

soybean (Glycine max) [10] = assay: as above; conditions: 10 days, 0 = no effect, 100 = complete control
How it was run: as §1

[11] = tested on: wheat (Triticum aestivum); assay: as above; conditions: 10 days, 0 = no effect, 100 = complete control
How it was run: as §1

[12] = tested on: barnyardgrass (Echinochloa crus-galli); assay: Test A postemergence application, visual injury rating 0-100; conditions: 10 days
How it was run: as §1

[13] = tested on: blackgrass (Alopecurus myosuroides); assay: as above; conditions: 10 days
How it was run: as §1

corn (Zea mays) [14] = assay: as above; conditions: 10 days
How it was run: as §1

[15] = tested on: galium (catchweed bedstraw, Galium aparine); assay: as above; conditions: 10 days
How it was run: as §1

[16] = tested on: green foxtail (Setaria viridis); assay: as above; conditions: 10 days
How it was run: as §1

[17] = tested on: horseweed (Erigeron canadensis); assay: as above; conditions: 10 days
How it was run: as §1

kochia (Bassia scoparia) [18] = assay: as above; conditions: 10 days
How it was run: as §1

[19] = tested on: oat, wild (wild oat, Avena fatua); assay: as above; conditions: 10 days
How it was run: as §1

[20] = tested on: palmer (palmer amaranth, palmer pigweed, Amaranthus palmeri); assay: as above; conditions: 10 days
How it was run: as §1

[21] = tested on: ragweed (common ragweed, Ambrosia artemisiifolia); assay: as above; conditions: 10 days
How it was run: as §1

[22] = tested on: ryegrass, Italian (italian ryegrass, Lolium multiflorum); assay: as above; conditions: 10 days
How it was run: as §1

soybean (Glycine max) [23] = assay: as above; conditions: 10 days
How it was run: as §1

[24] = tested on: wheat (Triticum aestivum); assay: as above; conditions: 10 days
How it was run: as §1

[25] = tested on: barnyardgrass (Echinochloa crusgalli); assay: Test B flooded paddy test, visual plant response rating 0-100; conditions: 250 g ai/ha, Flood, applied to paddy water, evaluated after 13 days
How it was run: (§2)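 Plants were grown to the 2-leaf stage, then pots were flooded to 3 cm above the soil and test compounds were applied directly into the paddy water. Water depth was held there throughout; after 13 days in a greenhouse, injury was scored visually against untreated controls.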

[26] = tested on: ducksalad (Heteranthera limosa); assay: as above; conditions: 250 g ai/ha, Flood, applied to paddy water, evaluated after 13 days
How it was run: as §2

rice (Oryza sativa) = assay: as above; conditions: 250 g ai/ha, Flood, applied to paddy water, evaluated after 13 days
How it was run: as §2

[27] = tested on: sedge, umbrella (small-flower umbrella sedge, Cyperus difformis); assay: as above; conditions: 250 g ai/ha, Flood, applied to paddy water, evaluated after 13 days
How it was run: as §2

[28] = 31 g ai/ha, postemergence, 0 = no effect, 100 = complete control
[29] = Postemergence, 125 g ai/ha, 0 is no effect, 100 is complete control

CNC(=O)C1CCC(NC(=O)C2(C)CN(c3cc(F)cc(F)c3)C(=O)O2)C1 (stereo not shown) [Compound 14]
Barnyardgrass plant response rating (0-100) ([1]; 31 g ai/ha): 0 | Barnyardgrass plant response rating (0 to 100 scale) ([1]; 125 g ai/ha): 0 | Blackgrass plant response rating (0-100) ([2]; 31 g ai/ha): 0 | Blackgrass plant response rating (0 to 100 scale) ([2]; 125 g ai/ha): 0 | Corn plant response rating (0-100) (corn (Zea mays) [3]; 31 g ai/ha): 0 | Corn plant response rating (0 to 100 scale) (corn (Zea mays) [3]; 125 g ai/ha): 0 | Foxtail, Green plant response rating (0-100) ([4]; 31 g ai/ha): 0 | Foxtail, Green plant response rating (0 to 100 scale) ([4]; 125 g ai/ha): 0 | Kochia plant response rating (0-100) (kochia (Bassia scoparia) [5]; 31 g ai/ha): 0 | Kochia plant response rating (0 to 100 scale) (kochia (Bassia scoparia) [5]; 125 g ai/ha): 0 | Oat, Wild plant response rating (0-100) ([6]; 31 g ai/ha): 0 | Oat, Wild plant response rating (0 to 100 scale) ([6]; 125 g ai/ha): 0 | Amaranth, Palmer plant response rating (0-100) ([7]; 31 g ai/ha): 0 | Amaranth, Palmer plant response rating (0 to 100 scale) ([7]; 125 g ai/ha): 0 | Ragweed plant response rating (0-100) ([8]; 31 g ai/ha): 0 | Ragweed plant response rating (0 to 100 scale) ([8]; 125 g ai/ha): 30 | Ryegrass, Italian plant response rating (0-100) ([9]; 31 g ai/ha): 0 | Ryegrass, Italian plant response rating (0 to 100 scale) ([9]; 125 g ai/ha): 0 | Soybean plant response rating (0-100) (soybean (Glycine max) [10]; 31 g ai/ha): 0 | Soybean plant response rating (0 to 100 scale) (soybean (Glycine max) [10]; 125 g ai/ha): 0 | Wheat plant response rating (0-100) ([11]; 31 g ai/ha): 0 | Wheat plant response rating (0 to 100 scale) ([11]; 125 g ai/ha): 0 | Barnyardgrass plant response rating (0-100) [12, 28]: 0 | Barnyardgrass plant response rating (0 to 100 scale) [12, 29]: 0 | Blackgrass plant response rating (0-100) [13, 28]: 0 | Blackgrass plant response rating (0 to 100 scale) [13, 29]: 0 | Corn plant response rating (0-100) (corn (Zea mays) [14]; [28]): 0 | Corn plant response rating (0 to 100 scale) (corn (Zea mays) [14]; [29]): 20 | Galium plant response rating (0-100) [15, 28]: 0 | Galium plant response rating (0 to 100 scale) [15, 29]: 0 | Foxtail, Green plant response rating (0-100) [16, 28]: 0 | Foxtail, Green plant response rating (0 to 100 scale) [16, 29]: 0 | Horseweed plant response rating (0-100) [17, 28]: 0 | Horseweed plant response rating (0 to 100 scale) [17, 29]: 0 | Kochia plant response rating (0-100) (kochia (Bassia scoparia) [18]; [28]): 0 | Kochia plant response rating (0 to 100 scale) (kochia (Bassia scoparia) [18]; [29]): 0 | Oat, Wild plant response rating (0-100) [19, 28]: 0 | Oat, Wild plant response rating (0 to 100 scale) [19, 29]: 0 | Amaranth, Palmer plant response rating (0-100) [20, 28]: 0 | Amaranth, Palmer / Pigweed, Palmer plant response rating (0 to 100 scale) [20, 29]: 0 | Ragweed plant response rating (0-100) [21, 28]: 0 | Ragweed plant response rating (0 to 100 scale) [21, 29]: 0 | Ryegrass, Italian plant response rating (0-100) [22, 28]: 0 | Ryegrass, Italian plant response rating (0 to 100 scale) [22, 29]: 0 | Soybean plant response rating (0-100) (soybean (Glycine max) [23]; [28]): 0 | Soybean plant response rating (0 to 100 scale) (soybean (Glycine max) [23]; [29]): 0 | Wheat plant response rating (0-100) [24, 28]: 0 | Wheat plant response rating (0 to 100 scale) [24, 29]: 0 | Plant response rating, Barnyardgrass (0 to 100 scale, 0 is no effect and 100 is complete control) [25]: 0 | Plant response rating, Ducksalad (0 to 100 scale, 0 is no effect and 100 is complete control) [26]: 0 | Plant response rating, Rice (0 to 100 scale, 0 is no effect and 100 is complete control) (rice (Oryza sativa)): 0 | Plant response rating, Sedge, Umbrella (0 to 100 scale, 0 is no effect and 100 is complete control) [27]: 0
